Reference: PubChem BioAssay (NCI)
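Method: 48-hour compound exposure of cells in 96-well plates, five concentrations, linear interpolation of endpoints. GI50 marks 50% less growth. TGI denotes the concentration required for complete inhibition of growth.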

What was measured:
Test in all cases: inhibition of tumour cell growth, NCI panel, 48 h
[1] = tested on: 786-0 renal
[2] = tested on: A498 renal
[3] = tested on: A549 NSCLC
[4] = tested on: ACHN renal
[5] = tested on: BT-549 breast
[6] = tested on: CAKI-1 renal
[7] = tested on: CCRF-CEM leukemia
[8] = tested on: COLO 205 colon
[9] = tested on: DU-145 prostate
[10] = tested on: EKVX NSCLC
[11] = tested on: HCC-2998 colon
[12] = tested on: HCT-116 colon
[13] = tested on: HCT-15 colon
[14] = tested on: HL-60(TB) leukemia
[15] = tested on: HOP-62 NSCLC
[16] = tested on: HOP-92 NSCLC
[17] = tested on: HS 578T breast
[18] = tested on: HT29 colon
[19] = tested on: IGROV1 ovarian
[20] = tested on: K-562 leukemia
[21] = tested on: KM12 colon
[22] = tested on: LOX IMVI melanoma
[23] = tested on: M14 melanoma
[24] = tested on: MALME-3M melanoma
[25] = tested on: MCF7 breast
[26] = tested on: MDA-MB-231 breast
[27] = tested on: MDA-MB-435
[28] = tested on: MDA-MB-468 breast
[29] = tested on: MOLT-4 leukemia
[30] = tested on: NCI-H226 lung
[31] = tested on: NCI-H23 lung
[32] = tested on: NCI-H460 lung
[33] = tested on: NCI-H522 lung
[34] = tested on: OVCAR-3 ovarian
[35] = tested on: OVCAR-4 ovarian
[36] = tested on: OVCAR-5 ovarian
[37] = tested on: OVCAR-8 ovarian
[38] = tested on: PC-3 prostate
[39] = tested on: RPMI-8226 leukemia
[40] = tested on: RXF 393 renal
[41] = tested on: SF-268 CNS
[42] = tested on: SF-295 CNS
[43] = tested on: SF-539 CNS
[44] = tested on: SK-MEL-28 melanoma
[45] = tested on: SK-MEL-5 melanoma
[46] = tested on: SK-OV-3 ovarian
[47] = tested on: SN12C renal
[48] = tested on: SNB-19 CNS
[49] = tested on: SNB-75 CNS
[50] = tested on: SR leukemia
[51] = tested on: SW-620 colon
[52] = tested on: T-47D breast
[53] = tested on: TK-10 renal
[54] = tested on: U251 CNS
[55] = tested on: UACC-257 melanoma
[56] = tested on: UACC-62 melanoma
[57] = tested on: UO-31 renal

CC(C)Sc1nc(NCCc2c[nH]c3ccccc23)c(C#N)c(-c2ccccc2)n1
GI50 [1]: 12.6 µM | TGI [1]: 30.5 µM | GI50 [2]: 15.1 µM | TGI [2]: 29.5 µM | GI50 [3]: 18.4 µM | TGI [3]: 42.5 µM | GI50 [4]: 14.3 µM | TGI [4]: 28 µM | GI50 [5]: 13.2 µM | TGI [5]: 26.6 µM | GI50 [6]: 11.2 µM | TGI [6]: 26 µM | GI50 [7]: 9.41 µM | TGI [7]: > 100 µM | GI50 [8]: 8.37 µM | TGI [8]: 21.2 µM | GI50 [9]: 14.9 µM | TGI [9]: 34.8 µM | GI50 [10]: 12.1 µM | TGI [10]: 31.1 µM | GI50 [11]: 10 µM | TGI [11]: 22.6 µM | GI50 [12]: 5.17 µM | TGI [12]: 18.5 µM | GI50 [13]: 5.38 µM | TGI [13]: 18.2 µM | GI50 [14]: 13.5 µM | TGI [14]: > 100 µM | GI50 [15]: 13.5 µM | TGI [15]: 27.8 µM | GI50 [16]: 14.7 µM | TGI [16]: 33.7 µM | GI50 [17]: 14.8 µM | TGI [17]: 56.1 µM | GI50 [18]: 5.57 µM | TGI [18]: 18.9 µM | GI50 [19]: 16.6 µM | TGI [19]: 32 µM | GI50 [20]: 4.85 µM | TGI [20]: > 100 µM | GI50 [21]: 5.54 µM | TGI [21]: 22.1 µM | GI50 [22]: 4.57 µM | TGI [22]: 15.3 µM | GI50 [23]: 13.8 µM | TGI [23]: 28.4 µM | GI50 [24]: 16.5 µM | TGI [24]: 30.7 µM | GI50 [25]: 11.3 µM | TGI [25]: 25.4 µM | GI50 [26]: 11.8 µM | TGI [26]: 27.3 µM | GI50 [27]: 14.4 µM | TGI [27]: 28.2 µM | GI50 [28]: 3.12 µM | TGI [28]: 9.98 µM | GI50 [29]: 9.21 µM | TGI [29]: > 100 µM | GI50 [30]: 13 µM | TGI [30]: 27.3 µM | GI50 [31]: 15.5 µM | TGI [31]: 30.7 µM | GI50 [32]: 8.41 µM | TGI [32]: 27.9 µM | GI50 [33]: 15.3 µM | TGI [33]: 30.9 µM | GI50 [34]: 15.8 µM | TGI [34]: 30.8 µM | GI50 [35]: 13.4 µM | TGI [35]: 36.4 µM | GI50 [36]: 12.1 µM | TGI [36]: 25.2 µM | GI50 [37]: 18.2 µM | TGI [37]: 51.4 µM | GI50 [38]: 7.08 µM | TGI [38]: 43.8 µM | GI50 [39]: 11.4 µM | TGI [39]: > 100 µM | GI50 [40]: 6.66 µM | TGI [40]: 20.3 µM | GI50 [41]: 18.4 µM | TGI [41]: 48.3 µM | GI50 [42]: 13.7 µM | TGI [42]: 29.6 µM | GI50 [43]: 13 µM | TGI [43]: 27 µM | GI50 [44]: 14.4 µM | TGI [44]: 28.6 µM | GI50 [45]: 11.4 µM | TGI [45]: 23.6 µM | GI50 [46]: 17.5 µM | TGI [46]: 45.4 µM | GI50 [47]: 13.3 µM | TGI [47]: 26.2 µM | GI50 [48]: 15.8 µM | TGI [48]: 33.3 µM | GI50 [49]: 17.8 µM | TGI [49]: 56.9 µM | GI50 [50]: 5.25 µM | TGI [50]: > 100 µM | GI50 [51]: 10.3 µM | TGI [51]: 26 µM | GI50 [52]: 6.54 µM | TGI [52]: 20.8 µM | GI50 [53]: 22.8 µM | TGI [53]: 46.8 µM | GI50 [54]: 11.6 µM | TGI [54]: 24.4 µM | GI50 [55]: 18.8 µM | TGI [55]: 41.8 µM | GI50 [56]: 14.4 µM | TGI [56]: 27.6 µM | GI50 [57]: 14.3 µM | TGI [57]: 31.2 µM
